Positions of bridges follow the written chain, without caps; N, C: chain ends. Non-standard residues stand in square brackets, D forms with d. Residues, ends and D or L forms follow the SMILES beside them. *: point of attachment. hPhe(3-Cl-4-CF3) = N[C@@H](CCc1ccc(C(F)(F)F)c(Cl)c1)C(=O)O; NMePhe(4-CF3) = CN[C@@H](Cc1ccc(C(F)(F)F)cc1)C(=O)O; hPhe(4-CF3) = N[C@@H](CCc1ccc(C(F)(F)F)cc1)C(=O)O; 3Oxa8azabicyclo(3.2.1)octane = C1CC2COCC1N2*; NMePhe(4-Cl) = CN[C@@H](Cc1ccc(Cl)cc1)C(=O)O; NMePhe(4-Me) = CN[C@@H](Cc1ccc(C)cc1)C(=O)O; NMePhe(2-Cl) = CN[C@@H](Cc1ccccc1Cl)C(=O)O; NMeGly(cPent) = CN[C@H](C(=O)O)C1CCCC1; Phe(3-I) = N[C@@H](Cc1cccc(I)c1)C(=O)O; Phe(2-F) = N[C@@H](Cc1ccccc1F)C(=O)O; NMe3Pal = CN[C@@H](Cc1cccnc1)C(=O)O; NMeCha = CN[C@@H](CC1CCCCC1)C(=O)O; Ala(cPr) = N[C@@H](CC1CC1)C(=O)O; NMeI = CC[C@H](C)[C@H](NC)C(=O)O; Cha = N[C@@H](CC1CCCCC1)C(=O)O; NMeD = CN[C@@H](CC(=O)O)C(=O)O; NMeL = CN[C@@H](CC(C)C)C(=O)O; NMeV = CN[C@H](C(=O)O)C(C)C; d(β3hA) = C[C@@H](N)CC(=O)O; dPip = O=C(O)[C@H]1CCCCN1; NMeA = CN[C@@H](C)C(=O)O; NMeAib = CNC(C)(C)C(=O)O; Piperidide = C1CCN(*)CC1; dNMeA = CN[C@H](C)C(=O)O; Ac5c = NC1(C(=O)O)CCCC1; Aze = O=C(O)[C@@H]1CCN1; NcPrGly = O=C(O)CNC1CC1; Sar = CNCC(=O)O
Each compound was assayed against T1, Kras and SOS1 (biotin-tagged human Kras loaded with GDP, His-tagged human SOS1) (Homo sapiens, UniProt P01116, G12D) (assay: Protein-protein interaction inhibition between Kras and SOS1 (KrasGl2D-SOS PPI) using AlphaScreen). Details: AlphaScreen; biotin-tagged human Kras loaded with GDP, His-tagged human SOS1; read-out: KRAS G12D-SOS PPI IC50.
T1 construct: made in house; host or cells: E. coli (stated for Kras only)
Format: binding
Procedure, shortened: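 Kras was produced in E. coli, purified, then loaded with GDP. It was paired via streptavidin acceptor beads with His-SOS1 held on nickel donor beads, and proximity signal at 520-620 nm was read after 680 nm illumination.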

T1 sequence (P01116 1-188 isoform P01116-2 G12D): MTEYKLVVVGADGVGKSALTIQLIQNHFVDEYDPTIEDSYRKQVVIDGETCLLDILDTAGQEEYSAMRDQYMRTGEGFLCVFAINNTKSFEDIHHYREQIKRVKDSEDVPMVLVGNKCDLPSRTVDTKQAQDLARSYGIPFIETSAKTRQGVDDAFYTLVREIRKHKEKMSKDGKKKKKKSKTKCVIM

Point of comparison: `CC[C@H](C)[C@@H]1NC(=O)[C@H](CC(C)C)N(C)C(=O)C[C@@H](C(=O)N2CCCCC2)N(C)C(=O)[C@H](CC(C)C)NC(=O)C(C)(C)N(C)C(=O)[C@H](Cc2ccccc2F)NC(=O)[C@H](Cc2cccc(I)c2)NC(=O)CN(C)C(=O)[C@H](Cc2ccc(C)cc2)N(C)C(=O)CN(C)C(=O)CN(C)C1=O` [Compound 556] ([NMeL]I[Sar][Sar][NMePhe(4-Me)][Sar][Phe(3-I)][Phe(2-F)][NMeAib]L[NMeD]-Piperidide; lactam N-11), IC50 30 nM. Against it:
- CC(C)C[C@H]1C(=O)N[C@@H](CC2CCCCC2)C(=O)N(C)CC(=O)N(C)CC(=O)N(C)[C@@H](CC2CCCCC2)C(=O)N(C)CC(=O)N[C@@H](CCc2ccc(C(F)(F)F)c(Cl)c2)C(=O)N2CCC[C@H]2C(=O)NC2(CCCC2)C(=O)N(C)[C@@H](C(C)C)C(=O)N[C@H](C)CC(=O)N1C [Compound 537] (cyclo([Ac5c][NMeV][d(β3hA)][NMeL][Cha][Sar][Sar][NMeCha][Sar][hPhe(3-Cl-4-CF3)]P)) — 2.7-fold higher, 82 nM
- CC[C@H](C)[C@@H]1NC(=O)[C@H](C(C)C)N(C)C(=O)C[C@@H](C)NC(=O)[C@H](CC(C)C)N(C)C(=O)C2(CCCC2)NC(=O)[C@H](CC(C)C)N(C)C(=O)[C@H](CCc2ccc(C(F)(F)F)cc2)NC(=O)CN(C)C(=O)[C@H](Cc2ccc(Cl)cc2)N(C)C(=O)CN(C)C(=O)[C@@H]2CCN2C1=O [Compound 538] (cyclo([Ac5c][NMeL][d(β3hA)][NMeV]I[Aze][Sar][NMePhe(4-Cl)][Sar][hPhe(4-CF3)][NMeL])) — 3.7-fold higher, 110 nM
- CC[C@H](C)[C@@H]1NC(=O)[C@H](C)N(C)C(=O)C[C@@H](C)NC(=O)[C@H](C2CCCC2)N(C)C(=O)C2(CCCC2)NC(=O)[C@@H]2CCCN2C(=O)[C@H](CCc2ccc(C(F)(F)F)c(Cl)c2)NC(=O)[C@@H](C)N(C)C(=O)[C@H](Cc2ccccc2Cl)N(C)C(=O)CN(C)C(=O)CN(C)C1=O [Compound 539] (cyclo([Ac5c][NMeGly(cPent)][d(β3hA)][NMeA]I[Sar][Sar][NMePhe(2-Cl)][dNMeA][hPhe(3-Cl-4-CF3)]P)) — 6.3-fold higher, 190 nM
- CC[C@H](C)[C@@H]1NC(=O)[C@H](CC(C)C)N(C)C(=O)C[C@@H](C)NC(=O)[C@H](C(C)C)N(C)C(=O)C2(CCCC2)NC(=O)[C@@H]2CCCN2C(=O)[C@H](CCc2ccc(C(F)(F)F)c(Cl)c2)NC(=O)CN(C)C(=O)[C@H](CC2CCCCC2)N(C)C(=O)CN(C)C(=O)CN(C2CC2)C1=O [Compound 542] (cyclo([Ac5c][NMeV][d(β3hA)][NMeL]I[NcPrGly][Sar][NMeCha][Sar][hPhe(3-Cl-4-CF3)]P)) — 2-fold higher, 61 nM
- CC[C@H](C)[C@@H]1NC(=O)[C@H](CC(C)C)N(C)C(=O)C[C@@H](C(=O)N2C3CCC2COC3)N(C)C(=O)[C@H]([C@@H](C)CC)N(C)C(=O)C2(CCCC2)NC(=O)[C@@H]2CCCN2C(=O)[C@H](CCc2ccc(C(F)(F)F)c(Cl)c2)NC(=O)CN(C)C(=O)[C@H](Cc2ccc(C(F)(F)F)cc2)N(C)C(=O)[C@@H]2CCN2C(=O)[C@H](C)N(C)C1=O [Compound 545] ([NMeL]I[NMeA][Aze][NMePhe(4-CF3)][Sar][hPhe(3-Cl-4-CF3)]P[Ac5c][NMeI][NMeD]-{3Oxa8azabicyclo(3.2.1)octane}; lactam N-11) — 27-fold lower, 1.1 nM
- CC[C@H](C)[C@@H]1NC(=O)[C@H](C)N(C)C(=O)C[C@@H](C)NC(=O)[C@H](C2CCCC2)N(C)C(=O)C2(CCCC2)NC(=O)[C@@H]2CCCN2C(=O)[C@H](CCc2ccc(C(F)(F)F)c(Cl)c2)NC(=O)CN(C)C(=O)[C@H](Cc2ccc(Cl)cc2)N(C)C(=O)[C@@H]2CCCN2C(=O)CN(C)C1=O [Compound 549] (cyclo([Ac5c][NMeGly(cPent)][d(β3hA)][NMeA]I[Sar]P[NMePhe(4-Cl)][Sar][hPhe(3-Cl-4-CF3)]P)) — 7.5-fold lower, 4 nM
- CC(C)C[C@H]1C(=O)N[C@@H](CC2CC2)C(=O)N(C)CC(=O)N(C)CC(=O)N(C)[C@@H](CC2CCCCC2)C(=O)N(C)CC(=O)N[C@@H](CCc2ccc(C(F)(F)F)c(Cl)c2)C(=O)N2CCC[C@H]2C(=O)NC2(CCCC2)C(=O)N(C)[C@@H](C(C)C)C(=O)N[C@H](C)CC(=O)N1C [Compound 550] (cyclo([Ac5c][NMeV][d(β3hA)][NMeL][Ala(cPr)][Sar][Sar][NMeCha][Sar][hPhe(3-Cl-4-CF3)]P)) — 3.7-fold higher, 110 nM
- CC[C@H](C)[C@@H]1NC(=O)[C@H](C)N(C)C(=O)C[C@@H](C(=O)N2CCCCC2)N(C)C(=O)[C@H](C(C)C)N(C)C(=O)C2(CCCC2)NC(=O)[C@@H]2CCCN2C(=O)[C@H](CCc2ccc(C(F)(F)F)c(Cl)c2)NC(=O)[C@H]2CCCCN2C(=O)[C@H](CC2CCCCC2)N(C)C(=O)[C@@H]2CCN2C(=O)CN(C)C1=O [Compound 553] ([NMeA]I[Sar][Aze][NMeCha][dPip][hPhe(3-Cl-4-CF3)]P[Ac5c][NMeV][NMeD]-Piperidide; lactam N-11) — within 1.5-fold, 27 nM
- CC[C@H](C)[C@@H]1NC(=O)[C@H](CC(C)C)N(C)C(=O)C[C@@H](C(=O)N(C)C)N(C)C(=O)[C@H]([C@@H](C)CC)N(C)C(=O)[C@H](C)NC(=O)[C@H](Cc2cccnc2)N(C)C(=O)[C@H](CCc2ccc(C(F)(F)F)c(Cl)c2)NC(=O)CN(C)C(=O)[C@H](Cc2ccc(C)cc2)N(C)C(=O)[C@@H]2CCN2C(=O)[C@H](C)N(C)C1=O [Compound 557] ([NMeL]I[NMeA][Aze][NMePhe(4-Me)][Sar][hPhe(3-Cl-4-CF3)][NMe3Pal]A[NMeI][NMeD]-NMe2; lactam N-11) — 6.8-fold lower, 4.4 nM
